In PubChem BioAssay (NCI):
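A five-concentration, 48-hour dose response in 96-well plates underlies each endpoint, interpolated linearly between surrounding concentrations. GI50: concentration for 50% inhibition of growth. TGI: total growth inhibition.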

Columns and labels:
Assay in all cases: NCI-60 cell line screen, 48 h
[1] = test system: NCI-H460 lung
[2] = test system: HT29 colon
[3] = test system: CAKI-1 renal
[4] = test system: BT-549 breast
[5] = test system: OVCAR-5 ovarian
[6] = test system: HS 578T breast
[7] = test system: NCI-H522 lung
[8] = test system: SNB-75 CNS
[9] = test system: 786-0 renal
[10] = test system: MDA-MB-231 breast
[11] = test system: NCI-H226 lung
[12] = test system: TK-10 renal
[13] = test system: PC-3 prostate
[14] = test system: HOP-92 NSCLC
[15] = test system: M14 melanoma
[16] = test system: A498 renal
[17] = test system: COLO 205 colon
[18] = test system: HCC-2998 colon
[19] = test system: HL-60(TB) leukemia
[20] = test system: UO-31 renal
[21] = test system: NCI/ADR-RES ovarian
[22] = test system: SW-620 colon
[23] = test system: SK-MEL-28 melanoma
[24] = test system: SF-295 CNS
[25] = test system: HOP-62 NSCLC
[26] = test system: NCI-H23 lung
[27] = test system: OVCAR-8 ovarian
[28] = test system: SNB-19 CNS
[29] = test system: OVCAR-3 ovarian
[30] = test system: HCT-15 colon
[31] = test system: MOLT-4 leukemia
[32] = test system: SF-539 CNS
[33] = test system: UACC-257 melanoma
[34] = test system: EKVX NSCLC
[35] = test system: T-47D breast
[36] = test system: U251 CNS
[37] = test system: LOX IMVI melanoma
[38] = test system: KM12 colon
[39] = test system: HCT-116 colon
[40] = test system: ACHN renal
[41] = test system: SR leukemia
[42] = test system: SK-OV-3 ovarian
[43] = test system: RPMI-8226 leukemia
[44] = test system: RXF 393 renal
[45] = test system: MCF7 breast
[46] = test system: SF-268 CNS
[47] = test system: OVCAR-4 ovarian
[48] = test system: A549 NSCLC
[49] = test system: IGROV1 ovarian
[50] = test system: MALME-3M melanoma
[51] = test system: SK-MEL-5 melanoma
[52] = test system: K-562 leukemia
[53] = test system: SN12C renal
[54] = test system: DU-145 prostate
[55] = test system: UACC-62 melanoma
[56] = test system: MDA-MB-435
[57] = test system: CCRF-CEM leukemia
[58] = test system: SK-MEL-2 melanoma

## O=C1c2c(c3c4cc(O)ccc4oc3c3[nH]c4ccccc4c23)C(=O)N1O
[1]
  GI50: 414 nM
  TGI: 2890 nM
[2]
  GI50: 1600 nM
  TGI: 3800 nM
[3]
  GI50: 787 nM
  TGI: 3740 nM
[4]
  GI50: 423 nM
  TGI: 1490 nM
[5]
  GI50: 2770 nM
  TGI: 9300 nM
[6]
  GI50: 1460 nM
  TGI: 5760 nM
[7]
  GI50: 220 nM
  TGI: 1220 nM
[8]
  GI50: 1020 nM
  TGI: 2240 nM
[9]
  GI50: 752 nM
  TGI: 6620 nM
[10]
  GI50: 1180 nM
  TGI: 4710 nM
[11]
  GI50: 1320 nM
  TGI: 5010 nM
[12]
  GI50: 5180 nM
  TGI: 15400 nM
[13]
  GI50: 812 nM
  TGI: 5550 nM
[14]
  GI50: 1140 nM
  TGI: 4600 nM
[15]
  GI50: 371 nM
  TGI: 3870 nM
[16]
  GI50: 3160 nM
  TGI: 9480 nM
[17]
  GI50: 1800 nM
  TGI: 9360 nM
[18]
  GI50: 1350 nM
  TGI: 3590 nM
[19]
  GI50: 460 nM
  TGI: 7830 nM
[20]
  GI50: 342 nM
  TGI: 1430 nM
[21]
  GI50: 1570 nM
  TGI: 29700 nM
[22]
  GI50: 549 nM
  TGI: 7100 nM
[23]
  GI50: 1150 nM
  TGI: 5460 nM
[24]
  GI50: 488 nM
  TGI: 5580 nM
[25]
  GI50: 721 nM
  TGI: 4470 nM
[26]
  GI50: 411 nM
  TGI: 2250 nM
[27]
  GI50: 820 nM
  TGI: 10700 nM
[28]
  GI50: 542 nM
  TGI: 5530 nM
[29]
  GI50: 1570 nM
  TGI: 5230 nM
[30]
  GI50: 1450 nM
  TGI: 7190 nM
[31]
  GI50: 320 nM
  TGI: 1340 nM
[32]
  GI50: 315 nM
  TGI: 1260 nM
[33]
  GI50: 1990 nM
  TGI: 6320 nM
[34]
  GI50: 2080 nM
  TGI: 8040 nM
[35]
  GI50: 461 nM
  TGI: 4530 nM
[36]
  GI50: 452 nM
  TGI: 12700 nM
[37]
  GI50: 258 nM
  TGI: 1020 nM
[38]
  GI50: 1910 nM
  TGI: 5780 nM
[39]
  GI50: 1090 nM
  TGI: 2810 nM
[40]
  GI50: 360 nM
  TGI: 1760 nM
[41]
  GI50: 274 nM
  TGI: 1930 nM
[42]
  GI50: 941 nM
  TGI: 3300 nM
[43]
  GI50: 1410 nM
  TGI: 8010 nM
[44]
  GI50: 872 nM
  TGI: 2260 nM
[45]
  GI50: 323 nM
  TGI: 5210 nM
[46]
  GI50: 553 nM
  TGI: 4270 nM
[47]
  GI50: 2170 nM
  TGI: 10700 nM
[48]
  GI50: 3290 nM
  TGI: 18300 nM
[49]
  GI50: 724 nM
  TGI: 2930 nM
[50]
  GI50: 851 nM
  TGI: 5080 nM
[51]
  GI50: 275 nM
  TGI: 815 nM
[52]
  GI50: 428 nM
  TGI: 13900 nM
[53]
  GI50: 468 nM
  TGI: 5790 nM
[54]
  GI50: 626 nM
  TGI: 11200 nM
[55]
  GI50: 703 nM
  TGI: 2400 nM
[56]
  GI50: 627 nM
  TGI: 2750 nM
[57]
  GI50: 277 nM
  TGI: 9860 nM
[58]
  GI50: 1380 nM
  TGI: 3080 nM
